Results as given in patent US20260083729A1, “METHODS FOR TREATMENT OF BONE MARROW FAILURE AND RELATED CONDITIONS” (Imago Biosciences, Inc., priority 2022, published 2026).

Assays:
[1] = tested on: LSK cells (HSC/progenitor cells: Lineage−, Sca-1+, c-Kit+); assay: In vivo expansion of LSK cells in bone marrow of wild-type mice (flow cytometry); parameters: species or system mice (C57/BL6); conditions: oral gavage
Method: (§1) The effect of LSD1 inhibitors on HSCPs was investigated in in vivo studies.
(§2) Animals. Healthy animals with an intact immune system were used for all experiments. All animals were drug and test naïve and not involved in previous procedures. Animals were maintained on a 12 hour light-dark cycle with access to water and standard chow ad libitum. CRADL animal care staff conducted routine husbandry procedures and provided daily care and monitoring of all animals housed in CRADL's animal facilities. 8-week old female C57/BL6 (C57BL/6NCrl) mice were purchased from Charles River. All mice were acclimated for at least 48 hours upon arrival. Mice were assigned to treatment groups based on complete blood counts to achieve congruent profiles, body weight was recorded for dose adjustments, and ear tagged for identification. Investigators were not blinded to the identity of mice or samples. No statistical methods were utilized to determine sample size. The experiments described in this study were designed to use the minimum number of animals required.
(§3) Dosing. To assess the effect of different LSD1 inhibitors on hematopoietic stem and progenitor cells (HSPCs), wild-type mice were administered with Compound 3, Compound 2, or vehicle once daily for 7 days via oral gavage. Administered doses were as indicated in FIGS. 1-5 (Compound 3: 15 and 40 mg/kg, Compound 2, 15, 40, 60, and/or 80 mg/kg).
(§4) Drug preparation. As an example of formulation calculations, a correction factor (compound and lot dependent) of 1.5 will be used (e.g., one lot of Compound 2 actual correction factor 1.67; one lot of Compound 3 actual correction factor 1.69). Vehicle is 30% PEG400 (Millipore Sigma cat #8074850058), 5% Cremophor EL (Med Chem Express cat #HY-Y189) in sterile Milli-Q water.
(§5) Compound 3 or Compound 2 (salt) at a dose of 15 mg/kg dose was prepared by weighing out 0.3 mg×1.5 (example correction factor)=0.45 mg per mouse in 200 μl vehicle solution. Each mouse of 20 g received 200 μl of compound in vehicle solution (volume was corrected for body weight of each mouse at time of dosing). Calculations were scaled appropriately for higher doses. Compound was completely dissolved by swirling and gently pipetting in vehicle. Aliquots were stored for daily usage at 4 C in the dark. On the day of dosing, formulations and vehicle were removed from 4 C and allowed to warm to RT for at least 20 minutes before dosing. Formulations were swirled to achieve a homogenous solution prior to administration for 7 days, once daily, via oral gavage.
(§6) Processing of bones and blood for analysis. 24 hours after the last dose was administered, blood was collected via cheek bleed and mice were subsequently sacrificed via CO2 asphyxiation. Bones were separated from the mice, muscle and tissue removed, and bone marrow cells were isolated from mouse femora and tibiae by centrifugation. Red blood cells (RBC) were lysed by adding cold ACK lysis buffer (Thermo Fisher cat #A1049201) and incubating bone marrow cells (or […] of peripheral blood) on ice for 10 minutes. Following RBC lysis, samples were topped up with an appropriate volume of FACS buffer (PBS+2% BSA) and centrifuged at 3000 rpm for 5 minutes. Cell pellet was resuspended in FACS buffer and filtered through a […] filter to remove aggregated cell clumps and debris. Cells in the filtered suspension were counted and ˜2-3×10^6 cells removed for cell staining.
(§7) Flow Cytometry Analysis. For flow staining, @ 2-3×10e6 cells were centrifuged at 400×g, 5 minutes, 4 C in 1.5 ml centrifuge tubes. Supernatant was aspirated and cells were resuspended in 100 μl of staining cock-tail per tube. Tubes were incubated on ice for 30 minutes in the dark. 1 ml of FACS buffer (PBS+2% FBS) was added to each tube and then centrifuged at 400×g, 5 minutes, 4° C. Supernatant was aspirated, and cells were resuspended at 300 μl per tube in 7-AAD solution (5 μl/ml of FACS Buffer). […]

[2] = tested on: long-term HSC (LT-HSC) cells; assay: In vivo expansion of long-term HSC (LT-HSC) cells in bone marrow of wild-type mice (flow cytometry); parameters: species or system mice (C57/BL6); conditions: oral gavage
Method: as §1, §2, §3, §4, §5, §6, §7

platelet (PLT) levels = assay: Complete blood count, platelet (PLT) levels, in treated mice; assay type: in vivo, mice (C57/BL6); conditions: once daily for 7 days, oral gavage
Method: as §2, §3
as §5, with “On the day of dosing, formulations and vehicle were removed from 4 C and allowed to warm to RT for at least 20 minutes before dosing. Formulations were swirled to achieve a homogenous solution prior to administration for 7 days, once daily, via oral gavage.” left out
Processing of bones and blood for analysis. […] Cells in the filtered suspension were counted and ˜2-3×10^6 cells removed for cell staining.
Complete blood counts. Complete blood counts from the peripheral blood sample collected at end of study were measured at IDEXX BioAnalytics.

effect on complete blood count as evidenced by platelet (PLT) levels (platelet (PLT) levels; three higher concentrations) | SMILES | in vivo expansion of LSK cells, fold increase ([1]; 40 mg/kg once daily for 7 days) [fold] | number of LSK cells, treated group ([1]; 40 mg/kg once daily for 7 days) | in vivo expansion of LSK cells, fold increase ([1]; 80 mg/kg once daily for 7 days) [fold] | number of LSK cells, treated group ([1]; 80 mg/kg once daily for 7 days) | in vivo expansion of LT-HSC cells, fold increase ([2]; 40 mg/kg once daily for 7 days) [fold] | number of LT-HSC cells, treated group ([2]; 40 mg/kg once daily for 7 days) | in vivo expansion of LT-HSC cells, fold increase ([2]; 80 mg/kg once daily for 7 days) [fold] | number of LT-HSC cells, treated group ([2]; 80 mg/kg once daily for 7 days) | effect on complete blood count as evidenced by platelet (PLT) levels (platelet (PLT) levels; two concentrations) | in vivo expansion of LSK cells, fold increase ([1]; 15 mg/kg once daily for 7 days) [fold] | number of LSK cells, treated group ([1]; 15 mg/kg once daily for 7 days) | in vivo expansion of LT-HSC cells, fold increase ([2]; 15 mg/kg once daily for 7 days) [fold] | number of LT-HSC cells, treated group ([2]; 15 mg/kg once daily for 7 days)
not significantly affected at any dose | COc1ccc(-n2nc(NC[C@H]3CCC[C@H](N)C3)cc2-c2ccc(C#N)c(F)c2)cc1 [Compound 2] | 1.7 | 1714 | 2.3 | 2215 | 1.5 | 250 | 1.6 | 157 | not significantly affected at either dose |  |  |  | 
 | CN1CCN(C(=O)[C@H](CCCN[C@@H]2C[C@H]2c2ccc(F)cc2)NC(=O)c2ccc(-n3ccnn3)cc2)CC1 [IMG-7289, bomedemstat] | 6 |  |  |  | 7.5 | 921 |  |  | reduced in a dose-dependent manner | 2 | 2545 | 2 | 252
